Data from patent US11712434B2, “Compound having anti-cancer effect, and preparation method therefor and use thereof” (3D MEDICINES (BEIJING) CO., LTD., priority 2016, dated 2023).

Tests used:
Experiment in all cases: Cell proliferation assay (Alamar Blue)
Type in all cases: cell-based
HUH1 = HUH1 liver cancer cell line, 6 days culture
Procedure, shortened: (§1)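 Plated at 500~1×10^4 cells/well and allowed 4 h to settle before dosing. Compounds were tested at nine concentrations, highest 100 or 30 μM, in duplicate, then cultured 6 days. Resazurin conversion was read fluorimetrically.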

SNU182 = SNU182 liver cancer cell line, 6 days culture
Procedure, shortened: as §1

SW620 = SW620 tumor cell line, 6 days culture
Procedure, shortened: as §1

SNU739 = SNU739 liver cancer cell line, 6 days culture
Procedure, shortened: as §1

HLF = HLF liver cancer cell line, 6 days culture
Procedure, shortened: as §1

LNCAP-clone-FGC = LNCAP-clone-FGC tumor cell line, 6 days culture
Procedure, shortened: as §1

Hep3B2.1-7 = Hep3B2.1-7 liver cancer cell line, 6 days culture
Procedure, shortened: as §1

NCI-H661 = NCI-H661 tumor cell line, 6 days culture
Procedure, shortened: as §1

MFM-223 = MFM-223 tumor cell line, 6 days culture
Procedure, shortened: as §1

Alexander cells = Alexander cells liver cancer cell line, 6 days culture
Procedure, shortened: as §1

HUH7 = HUH7 liver cancer cell line, 6 days culture
Procedure, shortened: as §1

HEPG2 = HEPG2 liver cancer cell line, 6 days culture
Procedure, shortened: as §1

NCI-H526 = NCI-H526 tumor cell line, 6 days culture
Procedure, shortened: as §1

JHH6 = JHH6 liver cancer cell line, 6 days culture
Procedure, shortened: as §1

Li-7 = Li-7 liver cancer cell line, 6 days culture
Procedure, shortened: as §1

NCI-H1648 = NCI-H1648 tumor cell line, 6 days culture
Procedure, shortened: as §1

22RV1 = 22RV1 tumor cell line, 6 days culture
Procedure, shortened: as §1

NCI-H1703 = NCI-H1703 (lung cancer cells), 6 days culture
Procedure, shortened: as §1

SNU387 = SNU387 liver cancer cell line, 6 days culture
Procedure, shortened: as §1

LC-2-ad = LC-2-ad tumor cell line, 6 days culture
Procedure, shortened: as §1

CCRF-CEM = CCRF-CEM tumor cell line, 6 days culture
Procedure, shortened: as §1

HCCLM3 = HCCLM3 tumor cell line, 6 days culture
Procedure, shortened: as §1

DU145 = DU145 tumor cell line, 6 days culture
Procedure, shortened: as §1

SNU398 = SNU398 liver cancer cell line, 6 days culture
Procedure, shortened: as §1

KASUMI-1 = KASUMI-1 (leukemia cells), 6 days culture
Procedure, shortened: as §1

NCI-H716 = NCI-H716 tumor cell line, 6 days culture
Procedure, shortened: as §1

Structure (SMILES): Cc1ccc(F)c(NC(=O)Nc2ccc(-c3cccc4[nH]nc(NC(=O)C[C@H](N)C(=O)N[C@@H](CCC(=O)O)C(=O)O)c34)cc2)c1 [Compound 1]
- IC50 (HUH1; Homo sapiens, HuH-1, 144 h): 4.67 µM
- IC50 (SNU182; Homo sapiens, SNU-182, 144 h): 30.9 µM
- IC50 (SW620; Homo sapiens, SW-620, 144 h): 3.96 µM
- IC50 (SNU739; SNU-739, 144 h): 7.63 µM
- IC50 (HLF; 144 h): 5.24 µM
- IC50 (LNCAP-clone-FGC; Homo sapiens, 144 h): 15.6 µM
- IC50 (Hep3B2.1-7; 144 h): 3.29 µM
- IC50 (NCI-H661; Homo sapiens, 144 h): 20.2 µM
- IC50 (MFM-223; Homo sapiens, 144 h): 3.59 µM
- IC50 (Alexander cells; 144 h): 4.01 µM
- IC50 (HUH7; Homo sapiens, Huh-7, 144 h): 2.89 µM
- IC50 (HEPG2; Homo sapiens, 144 h): 1.35 µM
- IC50 (NCI-H526; Homo sapiens, 144 h): 7.45 µM
- IC50 (JHH6; 144 h): 6.57 µM
- IC50 (Li-7; 144 h): 7.29 µM
- IC50 (NCI-H1648; Homo sapiens, 144 h): 10.1 µM
- IC50 (22RV1; Homo sapiens, 144 h): 8.16 µM
- IC50 (NCI-H1703; Homo sapiens, 144 h): 0.03 µM
- IC50 (SNU387; Homo sapiens, SNU-387, 144 h): 22.3 µM
- IC50 (LC-2-ad; Homo sapiens, 144 h): 3.52 µM
- IC50 (CCRF-CEM; Homo sapiens, 144 h): 6.14 µM
- IC50 (HCCLM3; Homo sapiens, 144 h): 8.24 µM
- IC50 (DU145; Homo sapiens, DU-145, 144 h): 4.25 µM
- IC50 (SNU398; Homo sapiens, SNU-398, 144 h): 1.75 µM
- IC50 (KASUMI-1; Homo sapiens, 144 h): 0.02 µM
- IC50 (NCI-H716; Homo sapiens, 144 h): 5.49 µM

Structure (SMILES): Cc1ccc(F)c(NC(=O)Nc2ccc(-c3cccc4[nH]nc(NC(=O)C[C@H](N)C(=O)N[C@@H](CCC(=O)N[C@@H](CCC(=O)N[C@@H](CCC(=O)N[C@@H](CCC(=O)O)C(=O)O)C(=O)O)C(=O)O)C(=O)O)c34)cc2)c1 [Compound 2]
- IC50 (HUH1; Homo sapiens, HuH-1, 144 h): 7.26 µM
- IC50 (SNU182; Homo sapiens, SNU-182, 144 h): 46.2 µM
- IC50 (SW620; Homo sapiens, SW-620, 144 h): 6.81 µM
- IC50 (SNU739; SNU-739, 144 h): 11.3 µM
- IC50 (HLF; 144 h): 10.8 µM
- IC50 (LNCAP-clone-FGC; Homo sapiens, 144 h): 26.5 µM
- IC50 (Hep3B2.1-7; 144 h): 6.32 µM
- IC50 (NCI-H661; Homo sapiens, 144 h): 36.8 µM
- IC50 (MFM-223; Homo sapiens, 144 h): 6.93 µM
- IC50 (Alexander cells; 144 h): 7.11 µM
- IC50 (HUH7; Homo sapiens, Huh-7, 144 h): 6.33 µM
- IC50 (HEPG2; Homo sapiens, 144 h): 3.86 µM
- IC50 (NCI-H526; Homo sapiens, 144 h): 11.3 µM
- IC50 (JHH6; 144 h): 10.9 µM
- IC50 (Li-7; 144 h): 19.5 µM
- IC50 (NCI-H1648; Homo sapiens, 144 h): 21.5 µM
- IC50 (22RV1; Homo sapiens, 144 h): 11.5 µM
- IC50 (NCI-H1703; Homo sapiens, 144 h): 0.07 µM
- IC50 (SNU387; Homo sapiens, SNU-387, 144 h): 47.9 µM
- IC50 (LC-2-ad; Homo sapiens, 144 h): 6.37 µM
- IC50 (CCRF-CEM; Homo sapiens, 144 h): 10.4 µM
- IC50 (HCCLM3; Homo sapiens, 144 h): 12 µM
- IC50 (DU145; Homo sapiens, DU-145, 144 h): 9.34 µM
- IC50 (SNU398; Homo sapiens, SNU-398, 144 h): 4.63 µM
- IC50 (KASUMI-1; Homo sapiens, 144 h): 0.05 µM
- IC50 (NCI-H716; Homo sapiens, 144 h): 10.8 µM

Structure (SMILES): Cc1ccc(F)c(NC(=O)Nc2ccc(-c3cccc4[nH]nc(NC(=O)CCCCCNC(=O)C[C@H](N)C(=O)N[C@@H](CCC(=O)O)C(=O)O)c34)cc2)c1 [Compound 4]
- IC50 (HUH1): > 100 µM
- IC50 (SNU182): > 100 µM
- IC50 (SW620): > 100 µM
- IC50 (SNU739): > 100 µM
- IC50 (HLF): > 100 µM
- IC50 (LNCAP-clone-FGC): > 100 µM
- IC50 (Hep3B2.1-7): > 100 µM
- IC50 (NCI-H661): > 100 µM
- IC50 (MFM-223): > 100 µM
- IC50 (Alexander cells): > 100 µM
- IC50 (HUH7): > 100 µM
- IC50 (HEPG2): 54.3 µM
- IC50 (NCI-H526): > 100 µM
- IC50 (JHH6): > 100 µM
- IC50 (Li-7): > 100 µM
- IC50 (NCI-H1648): > 100 µM
- IC50 (22RV1): > 100 µM
- IC50 (NCI-H1703): 1.24 µM
- IC50 (SNU387): > 100 µM
- IC50 (LC-2-ad): > 100 µM
- IC50 (CCRF-CEM): > 100 µM
- IC50 (HCCLM3): > 100 µM
- IC50 (DU145): > 100 µM
- IC50 (SNU398): > 100 µM
- IC50 (KASUMI-1): 1.53 µM
- IC50 (NCI-H716): 82.7 µM
